Assay results: patent US20110195910A1, “USE OF TOCOTRIENOL COMPOSITION FOR THE PREVENTION OF CANCER” (DAVOS LIFE SCIENCE PTE. LTD., priority 2008, published 2011)

Key:
[1] = test system: PC-3-Luc prostate cancer xenograft; experiment: PC-3-Luc prostate cancer xenograft model; type: in vivo, BALB/c athymic nude mice; conditions: γ-T3 50 mg/kg/day, Docetaxel 7.5 mg/kg/week; by day 14th after start of treatment; control 620±10
Experimental: 4.1.3 Establishment of the PC-3 prostate cancer xenograft model—Bioluminescent PC-3-Luc human prostate cancer cell line were generated according to known methods. Briefly, cDNA encoding the luciferase gene was cloned into the pLenti-6/V5. The construct was co-transfected with the packaging mix into HEK293 and lentivirus were collected and used for infecting PC-3 cells. Transfectants were obtained as a pool (PC-3-Luc) by selection with 10 μg/mL of Blasticidine for 1 week. The animal experimental protocol was approved by NACLAR (National Advisory Committee for Laboratory Animal Research) Guideline of Singapore for proper and humane use of animals. Male BALB/c athymic nude mice (4-5 weeks old, 18-22 g) were purchased from The Jackson Laboratory (Bar Harbor, Me., USA). […]
Nude mice bearing similar tumor sizes of about 100 mm^3 (after 2 weeks inoculation) were selected and randomly divided into three groups (n=5 per group); control (DMSO as vehicle), γ-T3 (50 mg/kg/d) and combination treatment of γ-T3 and Docetaxel (50 mg of γ-T3/kg/d and 7.5 mg of Docetaxel/kg/wk). The mice were weighed as daily basic and the tumors were measured using a Digital Carbon Fiber Caliper (Fisher scientific, Pittsburgh, Pa.) at the same time. The tumor volume was calculated as 4/3*π*(mean diameter/2)^3. […]

[2] = test system: DU145 cells; experiment: Western blotting of CD44, DU145 cells; type: cell-based; conditions: doses with minimum effect on viability
Experimental: 5.1.5 Western blotting was carried out as described above under 1.1.5. The membrane was incubated with primary antibodies directed against CD133 (Miltenyi Biotec, Auburn, Calif.), Bcl-2, PARP, cleaved caspase 3, 7, 9 (Cell Signaling, Technology Inc, Beverly, Mass.), CD44 and β-actin (Santa Cruz Biotechnology, Santa Cruz, Calif.). After washing with TBS-T, the membrane was incubated with secondary antibody against either mouse or rabbit IgG and the signals were visualized using ECL plus western blotting system (Amersham, Piscataway, N.J.).

[3] = test system: bladder cancer cell line MGH-U1; experiment: Spheroid formation assay, MGH-U1 cells; type: cell-based
Experimental: (§1) 5.1.7 Spheroid formation assay—Spheroid formation assay was performed with a protocol modified from previous study (Folkins C, p3560). Briefly, cells were first trypsinized, washed with 1× PBS and resuspended in DMEM F12 medium. Two hundred cells were added into each well of a 24-well-plate pre-coated with polyHEMA (Sigma, St. Louis, Mo.). Cells will be grown in DMEM/F12 mem (Invitrogen, Carlsbad, Calif.) supplemented with 4 μg/mL insulin (Sigma, St. Louis, Mo.), B27 (Invitrogen, Carlsbad, Calif.), 20 ng/mL EGF (Sigma, St. Louis, Mo.), and 20 ng/mL basic FGF (Invitrogen, Carlsbad, Calif.). Fresh medium with the above supplements was added every day. γ-T3 was added at indicated time points and the number of spheroids was counted at day 14 of the assay or at the end of the treatment. Each experiment was repeated in triplicates and each data point represented the mean and standard derivation.

[4] = test system: DU145 prostaspheres; experiment: Treatment of pre-formed CSC-enriched DU145 prostaspheres; type: cell-based; conditions: 48 hrs
Experimental: (A) CSC enriched prostaspheres were formed by maintaining DU145 cells in non-adherent culture supplemented with serum replacement medium for 14 days. The prostaspheres were then treated with either vehicle, γ-T3 (10, 20 μg/ml) or Docetaxel (Doc, 40 ng/ml) for 48 hrs. Spheroids were counted under microscope before and after treatment. Results were presented as mean % change in spheroid number to control±s.d. Note that spheroids were highly sensitive to γ-T3 treatment but resistant to high dose of Docetaxel. (B) Images of prostaspheres after 48 hrs treatment with vehicle, 40 ng/ml of Docetaxel and 10 μg/ml of γ-T3.
as §1

[5] = Serum-based toxicity assay; type: in vivo, C57BL/6 black mice; conditions: 5 dose i.p. injections per week containing 1 mg
Experimental: 4.1.8 Serum-based toxicity assay—Ten C57BL/6 black mice were given 5 dose intraperitoneal (i.p) injections per week containing 1 mg of γ-tocotrienol or DMSO blank. Mice were sacrificed by cardiac bleeding and the serum was extracted by method described above. Serum level of the biomarkers albumin, creatine, alanine transaminase ALT, aspartate aminotransferase AST, urea and alkaline phosphatase ALP were then measured by the colorimetric-based detection kits purchased from RANDOX laboratories Ltd. (Crumlin, United Kingdom).

[6] = test system: DU145 cells; experiment: Spheroid formation assay, DU145 cells; type: cell-based
Experimental: as §1

**Q.** Which tumor volume [1] does the source give for `CC(C)=CCC/C(C)=C/CC/C(C)=C/CCC1(C)CCc2cc(O)c(C)c(C)c2O1` (stereo not shown) [γ-T3, 7,8-dimethyltocotrienol] here?
**A.** 300±48 mm^3

**Q.** What about the CD44 expression [2] of the same compound?
**A.** suppression of CD44 expression

**Q.** And the “inhibition in spheroid formation” value [3]?
**A.** 100%

**Q.** And the “decrease of spheroid number” value ([4]; 10 μg/ml)?
**A.** 70%

**Q.** And the “decrease of spheroid number” value ([4]; 20 μg/ml)?
**A.** 76%

**Q.** And the “toxicological changes in serum parameters (Alb, Cre, ALT, AST, Ure, ALP)” value [5]?
**A.** no toxicological changes

**Q.** And the spheroid formation ability [6]?
**A.** almost completely suppressed
